Values joined by “and” are separate entries in the source; they are usually repeats but may differ in a detail not shown here. Equal entries are not always repeated. Inconclusive results and toxic doses are left out. Bridge positions count the residues as written; N and C are the ends. Square brackets hold non-standard residues; d marks the D form. Peptide text beside a SMILES is read from it. I, II: the chains in the order shown. * marks the point of attachment. Quinoxaline2carbonyl = O=C(c1cnc2ccccc2n1)*; NMeV = CN[CH](C(=O)O)C(C)C; NMeC = CN[CH](CS)C(=O)O
Tested on: BDF1 mice, B16 melanoma ip, median survival T/C
Test: NCI In Vivo Anticancer Drug Screen. Data for tumor model B16 Melanoma (intraperitoneal) in B6D2F1 (BDF1) mice
Settings: endpoint: median survival time, higher = longer survival
Summary of the method: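 Each result divides a survival or tumor-size measurement in the compound-treated group by the same measurement in the vehicle group.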

[1] = dose: 1.5 mg/kg/injection, schedule: Q01DX009 (ip), vehicle: saline
[2] = dose: 100.0 mg/kg/injection, schedule: Q01DX009 (ip), vehicle: Klucel (hydroxypropylcellulose) (HPC)
[3] = dose: 200.0 mg/kg/injection, schedule: Q01DX009 (ip), vehicle: Klucel (hydroxypropylcellulose) (HPC)
[4] = dose: 400.0 mg/kg/injection, schedule: Q01DX009 (ip), vehicle: Klucel (hydroxypropylcellulose) (HPC)
[5] = dose: 6.25 mg/kg/injection, schedule: Q01DX009 (ip), vehicle: Klucel (hydroxypropylcellulose) (HPC)
[6] = dose: 12.5 mg/kg/injection, schedule: Q01DX009 (ip), vehicle: Klucel (hydroxypropylcellulose) (HPC)
[7] = dose: 25.0 mg/kg/injection, schedule: Q01DX009 (ip), vehicle: Klucel (hydroxypropylcellulose) (HPC)
[8] = dose: 50.0 mg/kg/injection, schedule: Q01DX009 (ip), vehicle: Klucel (hydroxypropylcellulose) (HPC)
[9] = dose: 12.5 mg/kg/injection, schedule: Q01DX009 (ip), vehicle: saline
[10] = dose: 25.0 mg/kg/injection, schedule: Q01DX009 (ip), vehicle: saline
[11] = dose: 50.0 mg/kg/injection, schedule: Q01DX009 (ip), vehicle: saline with Tween-80
[12] = dose: 100.0 mg/kg/injection, schedule: Q01DX009 (ip), vehicle: saline with Tween-80
[13] = dose: 200.0 mg/kg/injection, schedule: Q01DX009 (ip), vehicle: saline with Tween-80
[14] = dose: 150.0 mg/kg/injection, schedule: Q01DX009 (ip), vehicle: saline with Tween-80

`CCC1(O)CC(OC2CC(N(C)C)C(OC3CC4OC5CC(=O)C(C)OC5OC4C(C)O3)C(C)O2)c2c(cc3c(c2O)C(=O)c2c(O)ccc(O)c2C3=O)C1C(=O)OC` (configuration not stated) was tested, and the T/C (dose: 0.75 mg/kg/injection, schedule: Q01DX009 (ip), vehicle: saline) was 88 % of control, the T/C (dose: 0.75 mg/kg/injection, schedule: Q04DX003 (ip), vehicle: saline) was 97 % of control and the T/C [1] was 105 % of control. For the same compound, the T/C (dose: 1.5 mg/kg/injection, schedule: Q04DX003 (ip), vehicle: saline) was 88 % of control and the T/C (dose: 3.0 mg/kg/injection, schedule: Q04DX003 (ip), vehicle: saline) was 97 % of control.
With `O=C(/C=C/C(=O)Oc1ccc(Cl)cc1)Oc1ccc(Cl)cc1` the T/C [2] was 94 % of control and the T/C [3] was 94 % of control.
For `CN(C)C=Nc1ccccc1`, the T/C [2] was 100 % of control, the T/C [3] was 112 % of control and the T/C [4] was 109 % of control.
For `CN1CCC23c4ccccc4NC1C21CCN(C)C3Nc2ccccc21`, the T/C (dose: 1.87 mg/kg/injection, schedule: Q01DX009 (ip), vehicle: saline) was 107 % of control, the T/C (dose: 3.75 mg/kg/injection, schedule: Q01DX009 (ip), vehicle: saline) was 107 % of control and the T/C (dose: 7.5 mg/kg/injection, schedule: Q01DX009 (ip), vehicle: saline) was 109 % of control.
`CN1CCCN(C(c2ccccc2)c2ccc(Cl)cc2)CC1` (configuration not stated) was tested, and the T/C (dose: 1.95 mg/kg/injection, schedule: Q01DX009 (ip), vehicle: saline) was 92 % of control, the T/C (dose: 3.9 mg/kg/injection, schedule: Q01DX009 (ip), vehicle: saline) was 105 % of control and the T/C (dose: 7.81 mg/kg/injection, schedule: Q01DX009 (ip), vehicle: saline) was 105 % of control. For the same compound, the T/C (dose: 15.62 mg/kg/injection, schedule: Q01DX009 (ip), vehicle: saline) was 97 % of control and the T/C (dose: 31.25 mg/kg/injection, schedule: Q01DX009 (ip), vehicle: saline) was 94 % of control.
`Cc1ccc(NCC2(/N=C/c3ccccc3)OC(CO)C(O)C2O)cc1` (configuration not stated) was tested, and the T/C [5] was 98 % of control, the T/C [6] was 109 % of control and the T/C [7] was 91 % of control and 95 % of control. For the same compound, the T/C [8] was 90 % of control and 92 % of control, the T/C [2] was 93 % of control and 114 % of control and the T/C (dose: 177.0 mg/kg/injection, schedule: Q01DX009 (ip), vehicle: Klucel (hydroxypropylcellulose) (HPC)) was 123 % of control. For the same compound, the T/C [3] was 104 % of control, the T/C (dose: 266.0 mg/kg/injection, schedule: Q01DX009 (ip), vehicle: Klucel (hydroxypropylcellulose) (HPC)) was 123 % of control and the T/C [4] was 109 % of control.
With `COc1c(OC(C)=O)cc2c(OC(C)=O)c1CC(C)CC(OC)C(O)C(C)/C=C(\C)C(OC(N)=O)C(OC)/C=C\C=C(/C)C(=O)N2` (configuration not stated) the T/C (dose: 12.5 mg/kg/injection, schedule: Q01DX005 (ip), vehicle: other) was 97 % of control, the T/C (dose: 25.0 mg/kg/injection, schedule: Q01DX005 (ip), vehicle: other) was 98 % of control and the T/C (dose: 50.0 mg/kg/injection, schedule: Q01DX005 (ip), vehicle: other) was 97 % of control. For the same compound, the T/C (dose: 100.0 mg/kg/injection, schedule: Q01DX005 (ip), vehicle: other) was 101 % of control and the T/C (dose: 200.0 mg/kg/injection, schedule: Q01DX005 (ip), vehicle: other) was 94 % of control.
With `c1ccc(C(=C2CCC2)c2c3ccccc3cc3ccccc23)cc1` the T/C (dose: 25.0 mg/kg/injection, schedule: Q04DX003 (ip), vehicle: Klucel (hydroxypropylcellulose) (HPC)) was 102 % of control, the T/C (dose: 50.0 mg/kg/injection, schedule: Q04DX003 (ip), vehicle: Klucel (hydroxypropylcellulose) (HPC)) was 91 % of control and the T/C (dose: 100.0 mg/kg/injection, schedule: Q04DX003 (ip), vehicle: Klucel (hydroxypropylcellulose) (HPC)) was 105 % of control.
`CC1NC(=O)C(NC(=O)c2cnc3ccccc3n2)COC(=O)C(C(C)C)N(C)C(=O)C2CSSCC(C(=O)N(C)C(C(C)C)C(=O)OCC(NC(=O)c3cnc4ccccc4n3)C(=O)NC(C)C(=O)N2C)N(C)C1=O` (configuration not stated) (I: Quinoxaline2carbonyl-SA[NMeC][NMeV] / II: Quinoxaline2carbonyl-SA[NMeC][NMeV]; ester I:1-II:C, I:C-II:1; disulfide I:3-II:3; configuration not given here) was tested, and the T/C (dose: 3.0 micrograms/kg/injection, schedule: Q01DX009 (ip), vehicle: Klucel (hydroxypropylcellulose) (HPC)) was 111 % of control, the T/C (dose: 6.0 micrograms/kg/injection, schedule: Q01DX009 (ip), vehicle: Klucel (hydroxypropylcellulose) (HPC)) was 122 % of control and the T/C (dose: 22.5 micrograms/kg/injection, schedule: Q01DX009 (ip), vehicle: Klucel (hydroxypropylcellulose) (HPC)) was 169 % of control. The T/C (dose: 24.0 micrograms/kg/injection, schedule: Q01DX009 (ip), vehicle: Klucel (hydroxypropylcellulose) (HPC)) was 151 % of control, the T/C (dose: 45.0 micrograms/kg/injection, schedule: Q01DX009 (ip), vehicle: Klucel (hydroxypropylcellulose) (HPC)) was 187 % of control and the T/C (dose: 48.0 micrograms/kg/injection, schedule: Q01DX009 (ip), vehicle: Klucel (hydroxypropylcellulose) (HPC)) was 161 % of control. For the same compound, the T/C (dose: 96.0 micrograms/kg/injection, schedule: Q01DX009 (ip), vehicle: Klucel (hydroxypropylcellulose) (HPC)) was 188 % of control.
In the case of `C[n+]1ccc2cc(N)c3c4ccccc4sc3c2c1`, the T/C (dose: 3.12 mg/kg/injection, schedule: Q01DX009 (ip), vehicle: Klucel (hydroxypropylcellulose) (HPC)) is reported as 103 % of control, the T/C [5] is reported as 101 % of control and the T/C (dose: 6.25 mg/kg/injection, schedule: Q01DX009 (ip), vehicle: saline) is reported as 113 % of control. For the same compound, the T/C [6] was 95 % of control, the T/C [9] was 119 % of control and the T/C [10] was 91 % of control.
With `CCC1(c2ccccc2)SC(=O)NC1=O` (configuration not stated) the T/C [11] was 98 % of control and the T/C [12] was 104 % of control.
With `O=c1[nH]c(=O)n(C2CC(O)C(CO)O2)cc1F` (configuration not stated) the T/C (dose: 5.0 mg/kg/injection, schedule: Q01DX009 (ip), vehicle: saline) was 92 % of control, the T/C (dose: 25.0 mg/kg/injection, schedule: Q01DX009 (ip), vehicle: saline with Tween-80) was 173 % of control and the T/C [12] was 183 % of control. For the same compound, the T/C [13] was 86 % of control.
In the case of `COc1nc(NC(C)C)nc(NC(C)C)n1`, the T/C [11] is reported as 102 % of control, the T/C (dose: 66.0 mg/kg/injection, schedule: Q01DX009 (ip), vehicle: saline with Tween-80) is reported as 93 % of control and the T/C [12] is reported as 86 % of control. The T/C [14] was 97 % of control and the T/C [13] was 105 % of control.
For `COC(=O)[C@@H]1[C@H](O)[C@H](C)[C@H](O)[C@@](C)(O)/C=C\C=C(C)C(=O)Nc2c(C)c(OC(C)=O)c3c(c2O)C(=O)C(C)=C2OCOC(=C23)C(C)=C[C@@](C)(O)[C@H](O)[C@@H](C)[C@H]1OC(C)=O`, the T/C [5] was 106 % of control, the T/C [6] was 99 % of control and the T/C [7] was 90 % of control. For the same compound, the T/C [8] was 91 % of control, the T/C (dose: 75.0 mg/kg/injection, schedule: Q01DX009 (ip), vehicle: saline with Tween-80) was 97 % of control and the T/C [2] was 95 % of control. For the same compound, the T/C [14] was 91 % of control and the T/C (dose: 300.0 mg/kg/injection, schedule: Q01DX009 (ip), vehicle: saline with Tween-80) was 87 % of control.
With `CC(=O)CC(C)(C)C1CCCCC1` the T/C (dose: 12.5 mg/kg/injection, schedule: Q01DX009 (ip), vehicle: water) was 107 % of control, the T/C (dose: 25.0 mg/kg/injection, schedule: Q01DX009 (ip), vehicle: water) was 98 % of control and the T/C (dose: 50.0 mg/kg/injection, schedule: Q01DX009 (ip), vehicle: water) was 95 % of control. The T/C (dose: 100.0 mg/kg/injection, schedule: Q01DX009 (ip), vehicle: water) was 102 % of control and the T/C (dose: 200.0 mg/kg/injection, schedule: Q01DX009 (ip), vehicle: water) was 88 % of control.
In the case of `CC1=C2CC(C)(C)/C=C\C(=O)/C(C)=C\C3=C[C@H](C)C[C@]3(O2)C1=O`, the T/C [1] is reported as 93 % of control, the T/C (dose: 3.0 mg/kg/injection, schedule: Q01DX009 (ip), vehicle: saline) is reported as 100 % of control and the T/C (dose: 6.0 mg/kg/injection, schedule: Q01DX009 (ip), vehicle: saline) is reported as 100 % of control. The T/C (dose: 12.0 mg/kg/injection, schedule: Q01DX009 (ip), vehicle: saline) was 106 % of control, the T/C (dose: 16.0 mg/kg/injection, schedule: Q01DX009 (ip), vehicle: saline with Tween-80) was 97 % of control and the T/C (dose: 32.0 mg/kg/injection, schedule: Q01DX009 (ip), vehicle: saline with Tween-80) was 92 % of control.
In the case of `CCNCCCCCCNCC`, the T/C [9] is reported as 98 % of control and the T/C [10] is reported as 90 % of control.
In the case of `Cc1cc(Cl)ccc1NC(=O)CCl`, the T/C [12] is reported as 100 % of control and the T/C [13] is reported as 95 % of control.

Reference: PubChem BioAssay AID192 (DTP/NCI, 2004)
